Values of other authors in patent US6703001B1, “Cosmetic and dermatological light-protective formulations containing triazine derivatives one or several esters of branched-chain carboxylic acids and branched-chain alcohols” (Beiersdorf AG, priority 1998, dated 2004).

corresponding dissolved, and therefore active, UV filter substance (corresponds to the about 15% by weight solubility in known solvents): 1-1.5 % by weight | maximum amount of the filter that known solvents can dissolve (known solvents for this UVB filter (lipids)): about 15 % by weight | solubility in lipids (in words) (lipids): poor solubility in lipids
Structure (SMILES): CCCCC(CC)COC(=O)c1ccc(Nc2nc(Nc3ccc(C(=O)OCC(CC)CCCC)cc3)nc(Nc3ccc(C(=O)OCC(CC)CCCC)cc3)n2)cc1 (stereo not drawn) [UVINUL7 T 150, tris(2-ethylhexyl) 4,4′,4″-(1,3,5-triazine-2,4,6-triyltriimino)trisbenzoate]
